From US10000483B2, “Bone marrow on X chromosome kinase (BMX) inhibitors and uses thereof” (Dana-Farber Cancer Institute, Inc., priority 2012, dated 2018)

Legend:
[1] = tested on: TEL-JAK1 transformed Ba/F3 cells; assay: cells; conditions: Mus musculus, BaF3, read-out: GI50, TEL-JAK1
BMX [2] = target: T1, BMX (Homo sapiens (Human), UniProt P51813); assay: DiscoverX binding assay
Source text: (§2) Screening hits are identified by measuring the amount of protein captured in test versus control samples by using a quantitative, precise, and ultra-sensitive qPCR method that detects the associated DNA label.

PIP5K2C = PIP5K2C (Homo sapiens (Human), UniProt Q8TBX8); assay: Kinase panel at 1 uM (Table 9); format: binding; conditions: read-out: % inhibition at 1 uM, PIP5K2C
Source text: as §2

[3] = tested on: TEL-BMX transformed Ba/F3 cells; assay: cells; conditions: Mus musculus, BaF3, read-out: GI50, TEL-BMX
[4] = tested on: TEL-JAK3 transformed Ba/F3 cells; assay: cells; conditions: Mus musculus, BaF3, read-out: GI50, TEL-JAK3 (+IL-3)
JAK3 = JAK3 (Homo sapiens (Human), UniProt P52333); assay: DiscoverX binding assay
Source text: as §2

FLT3(ITD) = assay: Kinase panel at 1 uM (Table 9); format: binding
Source text: as §2

BMX [5] = target: T1, BMX; assay: BMX protein levels in RV-1 cells; format: cell-based; conditions: 72 h treatment, 5 μM
Source text: Moreover, the depletion could be rescued upon stable overexpression of the C496S mutant BMX.

DYRK2 = DYRK2 (Homo sapiens (Human), UniProt Q92630); assay: Kinase panel at 1 uM (Table 9); format: binding; conditions: read-out: % inhibition at 1 uM, DYRK2
Source text: as §2

BMX (C496S) = BMX (C496S) (Homo sapiens (Human), UniProt P51813, C496S); assay: IP kinase assay, BMX autophosphorylation; format: biochemical; conditions: FIG. 15A
Source text: (§1) FIG. 15 confirms that the potency of the BMX inhibitors is due to covalent binding to cysteine 496.

wild-type (WT) BMX = wild-type (WT) BMX (Homo sapiens (Human), UniProt P51813); assay: IP kinase assay, BMX autophosphorylation; format: biochemical; conditions: FIG. 15
Source text: as §1

JNK1 = JNK1 (Homo sapiens (Human), UniProt P45983); assay: Kinase panel at 1 uM (Table 9); format: binding; conditions: read-out: % inhibition at 1 uM, JNK1
Source text: as §2

BCWM.1 cells = assay: Cell proliferation analysis for WM and lymphoma cell lines (CellTiter-Glo); format: cell-based; conditions: BCWM1; 72 hours
Experimental: (§3) Various cell lines were used including Waldenström's macroglobulinemia (WM) cell lines (BCWM.1, MWCL-1, RPCI-WM1) and B-cell lymphoma cell lines (OCI-Ly3, Ramos, OCI-Ly19). Cells were seeded into 384 well plates with the EL406 Combination Washer Dispenser (BioTek Instruments, Inc.) and inhibitor compounds were injected into the cells culture media with the JANUS Automated Workstation (PerkinElmer Inc.).

DU-145 cells = assay: cells; conditions: Homo sapiens, DU-145, read-out: GI50, DU-145
Experimental: (§4) Data were normalized to control group (DMSO) and represented by the mean of at least two independent measurement with standard error <20%. GI50 were calculated using Prism 5.0 (GraphPad Software, San Diego, Calif.).

VACP cells = assay: cells; conditions: read-out: GI50, VACP
Experimental: as §4

WT-Ba/F3 cells = assay: cells; conditions: Mus musculus, BaF3, read-out: GI50, WT-Ba/F3
EGFR(T790M) = EGFR(T790M) (Homo sapiens (Human), UniProt P00533, T790M); assay: DiscoverX binding assay
Source text: as §2

RV1 cells = assay: Prostate cancer cell apoptosis, cleaved caspase 3; format: cell-based
Source text: Caspase-3 positive cells were counted and normalized to total cell number (N=5).

DYRK1B = DYRK1B (Homo sapiens (Human), UniProt Q9Y463); assay: Kinase panel at 1 uM (Table 9); format: binding; conditions: read-out: % inhibition at 1 uM, DYRK1B
Source text: as §2

OCI-Ly19 cells = assay: Cell proliferation analysis for WM and lymphoma cell lines (CellTiter-Glo); format: cell-based; conditions: Homo sapiens, 72 hours
Experimental: as §3

ITK [6] = target: T2, ITK (Homo sapiens (Human), UniProt Q08881); assay: DiscoverX binding assay
Source text: as §2

[7] = tested on: TEL-BLK transformed Ba/F3 cells; assay: cells; conditions: Mus musculus, BaF3, read-out: GI50, TEL-BLK
FAK pY576/577 = assay: FAK pYpY phosphorylation blot in RV1 cells cotransfected with BMX and FAK; format: cell-based; conditions: FIG. 17
MKNK2 = MKNK2 (Homo sapiens (Human), UniProt Q9HBH9); assay: Kinase panel at 1 uM (Table 9); format: binding; conditions: read-out: % inhibition at 1 uM, MKNK2
Source text: as §2

[8] = tested on: TYK2E957D transformed Ba/F3 cells; assay: cells; conditions: Mus musculus, BaF3, read-out: GI50, TYK2E957D
OCI-Ly3 cells = assay: Cell proliferation analysis for WM and lymphoma cell lines (CellTiter-Glo); format: cell-based; conditions: Homo sapiens, 72 hours
Experimental: as §3

ITK [9] = target: T2, ITK; assay: Invitrogen Select Screening in vitro kinase assay; format: biochemical
Source text: The in vitro activity of compounds of Formula (I) and (II) in inhibiting BMX and other kinases were obtained using an Invitrogen Select Screening assay as known in the art.

PIK3CA(I800L) = PIK3CA(I800L) (Homo sapiens (Human), UniProt P42336, I800L); assay: Kinase panel at 1 uM (Table 9); format: binding; conditions: read-out: % inhibition at 1 uM, PIK3CA(I800L)
Source text: as §2

TEC = TEC (Homo sapiens (Human), UniProt P42680); assay: DiscoverX binding assay
Source text: as §2

MWCL-1 cells = assay: Cell proliferation analysis for WM and lymphoma cell lines (CellTiter-Glo); format: cell-based; conditions: 72 hours
Experimental: as §3

TAK1 = TAK1 (Homo sapiens (Human), UniProt O43318); assay: Kinase panel at 1 uM (Table 9); format: binding; conditions: read-out: % inhibition at 1 uM, TAK1
Source text: as §2

CSNK2A2 = CSNK2A2 (Homo sapiens (Human), UniProt P19784); assay: Kinase panel at 1 uM (Table 9); format: binding; conditions: read-out: % inhibition at 1 uM, CSNK2A2
Source text: as §2

BMX [10] = target: T1, BMX; assay: BMX autophosphorylation in RV-1 cells; format: cell-based
PIK3CG = PIK3CG (Homo sapiens (Human), UniProt P48736); assay: Kinase panel at 1 uM (Table 9); format: binding; conditions: read-out: % inhibition at 1 uM, PIK3CG
Source text: as §2

RV1 xenograft = RV1 xenograft growth; conditions: over 2 weeks, in vivo treatment; FIG. 19
BLK = BLK (Homo sapiens (Human), UniProt P51451); assay: DiscoverX binding assay
Source text: as §2

Q: For C=CC(=O)Nc1cc(-n2c(=O)ccc3cnc4ccc(-c5ccc(NS(C)(=O)=O)cc5)cc4c32)ccc1C [I-14], which GI50 [1] is on record?
A: 4.92 µM

Q: And the “Percent Control, BMX” value (BMX [2])?
A: 29%

Q: What about the inhibition at 1 µM (PIP5K2C) of the same compound?
A: 5.6%

Q: What about the GI50 [3] of the same compound?
A: 0.025 µM

Q: What about the GI50 [4] of the same compound?
A: 7.77 µM

Q: What about the “Percent Control, JAK3” value (JAK3; DiscoverX binding) of the same compound?
A: 20%

Q: What about the inhibition at 1 µM (JAK3; read-out: % inhibition at 1 uM, JAK3(JH1domain-catalytic)) of the same compound?
A: 6.6%

Q: And the “% inhibition at 1 uM, FLT3(ITD)” value (FLT3(ITD))?
A: 99%

Q: What about the “BMX protein levels in RV-1 cells” value (BMX [5]) of the same compound?
A: significantly reduced

Q: What about the inhibition at 1 µM (DYRK2) of the same compound?
A: 100%

Q: And the “concentration inhibiting autophosphorylation of BMX (C496S)” value (BMX (C496S))?
A: > 10,000 nM

Q: And the “concentration inhibiting autophosphorylation of wild-type BMX” value (wild-type (WT) BMX)?
A: 10 to 100 nM

Q: And the inhibition at 1 µM (JNK1)?
A: 93%

Q: And the EC50 (BCWM.1 cells)?
A: 1.1 µM

Q: What about the GI50 (DU-145 cells) of the same compound?
A: 4.38 µM

Q: And the GI50 (VACP cells)?
A: 2.46 µM

Q: What about the GI50 (WT-Ba/F3 cells) of the same compound?
A: > 10 µM

Q: And the “Percent Control, EGFR(T790M)” value (EGFR(T790M); DiscoverX binding)?
A: 2.1%

Q: And the inhibition at 1 µM (EGFR(T790M); read-out: % inhibition at 1 uM, EGFR(T790M))?
A: 11%

Q: And the “cell numbers and apoptosis by Caspase 3 staining” value (RV1 cells; 5 pM concentration (so in the source))?
A: reduced cell numbers and induced apoptosis

Q: What about the “concentration causing apoptosis based on increased cleaved caspase 3” value (RV1 cells; FIG. 18C) of the same compound?
A: 10 to 20 µM

Q: And the inhibition at 1 µM (DYRK1B)?
A: 100%

Q: And the EC50 (OCI-Ly19 cells)?
A: 0.9 µM

Q: What about the “Percent Control, ITK” value (ITK [6]) of the same compound?
A: 52%

Q: And the GI50 [7]?
A: 3.64 µM

Q: And the “BMX mediated phosphorylation of pYpY site on FAK” value (FAK pY576/577)?
A: inhibits BMX mediated phosphorylation of pYpY site on FAK

Q: And the inhibition at 1 µM (MKNK2)?
A: 100%

Q: What about the GI50 [8] of the same compound?
A: 6.09 µM

Q: What about the EC50 (OCI-Ly3 cells) of the same compound?
A: > 20 µM

Q: And the IC50 (ITK [9])?
A: 5.25 µM

Q: And the inhibition at 1 µM (PIK3CA(I800L))?
A: 46%

Q: And the “Percent Control, TEC” value (TEC)?
A: 27%

Q: What about the EC50 (MWCL-1 cells) of the same compound?
A: 1.39 µM

Q: What about the inhibition at 1 µM (TAK1) of the same compound?
A: 83%

Q: And the inhibition at 1 µM (CSNK2A2)?
A: 100%

Q: What about the “concentration sufficient to inhibit BMX autophosphorylation in RV-1 cells” value (BMX [10]) of the same compound?
A: ≤ 1 µM

Q: And the inhibition at 1 µM (PIK3CG)?
A: 2.8%

Q: What about the RV1 xenograft growth (RV1 xenograft) of the same compound?
A: decreased

Q: What about the “Percent Control, BLK” value (BLK; DiscoverX binding) of the same compound?
A: 40%

Q: What about the inhibition at 1 µM (BLK; read-out: % inhibition at 1 uM, BLK) of the same compound?
A: 40%
